Source: US9340590B2 (priority 2011, dated 2016)
Positions of bridges follow the written chain, without caps; N, C: chain ends. Non-standard residues stand in square brackets, D forms with d. Residues, ends and D or L forms follow the SMILES beside them. Phe(4-guanidino) = N=C(N)Nc1ccc(C[C@H](N)C(=O)O)cc1; hCit = NC(=O)NCCCC[C@H](N)C(=O)O; Cit = NC(=O)NCCC[C@H](N)C(=O)O; Dab = NCC[C@H](N)C(=O)O

What was measured:
hNav1.7 = hNav1.7 (Homo sapiens, UniProt Q15858); assay: cell-based; conditions: Nav1.7 Use IC50
hNav1.5 = hNav1.5 (Homo sapiens, UniProt Q14524); assay: cell-based
Chain of hNav1.5 (Q14524 whole entry, looked up): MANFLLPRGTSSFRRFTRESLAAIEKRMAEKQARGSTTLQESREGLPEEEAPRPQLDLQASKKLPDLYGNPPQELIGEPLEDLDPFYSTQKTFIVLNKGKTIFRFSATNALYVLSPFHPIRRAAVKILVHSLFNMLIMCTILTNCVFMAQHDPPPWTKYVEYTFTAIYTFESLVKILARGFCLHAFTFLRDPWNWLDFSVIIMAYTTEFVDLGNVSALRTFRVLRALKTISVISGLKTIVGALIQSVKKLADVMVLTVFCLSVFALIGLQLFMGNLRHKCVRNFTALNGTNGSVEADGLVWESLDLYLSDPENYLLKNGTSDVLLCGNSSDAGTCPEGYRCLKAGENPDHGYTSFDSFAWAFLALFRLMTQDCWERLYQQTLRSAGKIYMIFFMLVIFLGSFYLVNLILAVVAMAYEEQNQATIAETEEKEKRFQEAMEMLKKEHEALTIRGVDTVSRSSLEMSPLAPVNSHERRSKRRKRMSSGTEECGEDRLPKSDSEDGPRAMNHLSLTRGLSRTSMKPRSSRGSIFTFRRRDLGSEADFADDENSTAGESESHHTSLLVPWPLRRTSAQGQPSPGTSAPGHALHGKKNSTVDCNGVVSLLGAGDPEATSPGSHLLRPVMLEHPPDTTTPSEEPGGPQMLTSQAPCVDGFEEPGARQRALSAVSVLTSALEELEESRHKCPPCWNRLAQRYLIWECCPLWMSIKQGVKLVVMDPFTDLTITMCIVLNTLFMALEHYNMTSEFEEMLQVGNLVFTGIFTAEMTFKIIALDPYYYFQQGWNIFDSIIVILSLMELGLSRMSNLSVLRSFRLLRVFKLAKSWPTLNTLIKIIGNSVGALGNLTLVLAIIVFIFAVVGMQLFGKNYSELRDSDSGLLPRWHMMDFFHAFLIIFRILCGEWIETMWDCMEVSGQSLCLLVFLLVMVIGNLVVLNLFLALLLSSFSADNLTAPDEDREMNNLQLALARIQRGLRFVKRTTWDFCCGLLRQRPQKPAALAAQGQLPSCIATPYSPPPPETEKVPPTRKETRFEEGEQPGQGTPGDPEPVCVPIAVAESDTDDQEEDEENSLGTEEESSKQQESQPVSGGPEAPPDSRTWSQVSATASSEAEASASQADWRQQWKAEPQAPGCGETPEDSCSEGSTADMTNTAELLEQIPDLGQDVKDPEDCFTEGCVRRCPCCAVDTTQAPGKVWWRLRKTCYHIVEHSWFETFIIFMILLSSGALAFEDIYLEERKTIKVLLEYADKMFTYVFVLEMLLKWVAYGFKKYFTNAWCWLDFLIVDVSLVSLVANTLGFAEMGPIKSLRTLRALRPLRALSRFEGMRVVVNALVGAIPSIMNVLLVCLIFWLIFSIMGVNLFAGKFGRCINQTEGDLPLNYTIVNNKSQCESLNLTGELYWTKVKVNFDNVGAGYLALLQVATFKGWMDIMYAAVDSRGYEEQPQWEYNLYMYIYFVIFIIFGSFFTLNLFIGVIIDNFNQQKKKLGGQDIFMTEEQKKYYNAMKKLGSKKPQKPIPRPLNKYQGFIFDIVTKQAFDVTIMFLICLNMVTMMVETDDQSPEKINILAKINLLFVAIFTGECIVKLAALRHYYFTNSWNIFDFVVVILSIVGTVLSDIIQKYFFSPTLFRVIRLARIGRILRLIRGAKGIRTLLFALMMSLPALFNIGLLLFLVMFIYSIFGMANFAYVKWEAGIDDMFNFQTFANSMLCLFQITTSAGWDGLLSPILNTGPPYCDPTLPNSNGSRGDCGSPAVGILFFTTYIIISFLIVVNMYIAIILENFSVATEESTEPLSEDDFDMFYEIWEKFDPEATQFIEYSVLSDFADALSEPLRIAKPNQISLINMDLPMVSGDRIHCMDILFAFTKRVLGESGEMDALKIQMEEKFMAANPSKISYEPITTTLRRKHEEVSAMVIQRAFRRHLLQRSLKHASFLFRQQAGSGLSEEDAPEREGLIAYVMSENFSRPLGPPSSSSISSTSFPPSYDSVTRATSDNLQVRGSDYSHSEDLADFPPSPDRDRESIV

Chain of hNav1.7 (Q15858 whole entry, looked up): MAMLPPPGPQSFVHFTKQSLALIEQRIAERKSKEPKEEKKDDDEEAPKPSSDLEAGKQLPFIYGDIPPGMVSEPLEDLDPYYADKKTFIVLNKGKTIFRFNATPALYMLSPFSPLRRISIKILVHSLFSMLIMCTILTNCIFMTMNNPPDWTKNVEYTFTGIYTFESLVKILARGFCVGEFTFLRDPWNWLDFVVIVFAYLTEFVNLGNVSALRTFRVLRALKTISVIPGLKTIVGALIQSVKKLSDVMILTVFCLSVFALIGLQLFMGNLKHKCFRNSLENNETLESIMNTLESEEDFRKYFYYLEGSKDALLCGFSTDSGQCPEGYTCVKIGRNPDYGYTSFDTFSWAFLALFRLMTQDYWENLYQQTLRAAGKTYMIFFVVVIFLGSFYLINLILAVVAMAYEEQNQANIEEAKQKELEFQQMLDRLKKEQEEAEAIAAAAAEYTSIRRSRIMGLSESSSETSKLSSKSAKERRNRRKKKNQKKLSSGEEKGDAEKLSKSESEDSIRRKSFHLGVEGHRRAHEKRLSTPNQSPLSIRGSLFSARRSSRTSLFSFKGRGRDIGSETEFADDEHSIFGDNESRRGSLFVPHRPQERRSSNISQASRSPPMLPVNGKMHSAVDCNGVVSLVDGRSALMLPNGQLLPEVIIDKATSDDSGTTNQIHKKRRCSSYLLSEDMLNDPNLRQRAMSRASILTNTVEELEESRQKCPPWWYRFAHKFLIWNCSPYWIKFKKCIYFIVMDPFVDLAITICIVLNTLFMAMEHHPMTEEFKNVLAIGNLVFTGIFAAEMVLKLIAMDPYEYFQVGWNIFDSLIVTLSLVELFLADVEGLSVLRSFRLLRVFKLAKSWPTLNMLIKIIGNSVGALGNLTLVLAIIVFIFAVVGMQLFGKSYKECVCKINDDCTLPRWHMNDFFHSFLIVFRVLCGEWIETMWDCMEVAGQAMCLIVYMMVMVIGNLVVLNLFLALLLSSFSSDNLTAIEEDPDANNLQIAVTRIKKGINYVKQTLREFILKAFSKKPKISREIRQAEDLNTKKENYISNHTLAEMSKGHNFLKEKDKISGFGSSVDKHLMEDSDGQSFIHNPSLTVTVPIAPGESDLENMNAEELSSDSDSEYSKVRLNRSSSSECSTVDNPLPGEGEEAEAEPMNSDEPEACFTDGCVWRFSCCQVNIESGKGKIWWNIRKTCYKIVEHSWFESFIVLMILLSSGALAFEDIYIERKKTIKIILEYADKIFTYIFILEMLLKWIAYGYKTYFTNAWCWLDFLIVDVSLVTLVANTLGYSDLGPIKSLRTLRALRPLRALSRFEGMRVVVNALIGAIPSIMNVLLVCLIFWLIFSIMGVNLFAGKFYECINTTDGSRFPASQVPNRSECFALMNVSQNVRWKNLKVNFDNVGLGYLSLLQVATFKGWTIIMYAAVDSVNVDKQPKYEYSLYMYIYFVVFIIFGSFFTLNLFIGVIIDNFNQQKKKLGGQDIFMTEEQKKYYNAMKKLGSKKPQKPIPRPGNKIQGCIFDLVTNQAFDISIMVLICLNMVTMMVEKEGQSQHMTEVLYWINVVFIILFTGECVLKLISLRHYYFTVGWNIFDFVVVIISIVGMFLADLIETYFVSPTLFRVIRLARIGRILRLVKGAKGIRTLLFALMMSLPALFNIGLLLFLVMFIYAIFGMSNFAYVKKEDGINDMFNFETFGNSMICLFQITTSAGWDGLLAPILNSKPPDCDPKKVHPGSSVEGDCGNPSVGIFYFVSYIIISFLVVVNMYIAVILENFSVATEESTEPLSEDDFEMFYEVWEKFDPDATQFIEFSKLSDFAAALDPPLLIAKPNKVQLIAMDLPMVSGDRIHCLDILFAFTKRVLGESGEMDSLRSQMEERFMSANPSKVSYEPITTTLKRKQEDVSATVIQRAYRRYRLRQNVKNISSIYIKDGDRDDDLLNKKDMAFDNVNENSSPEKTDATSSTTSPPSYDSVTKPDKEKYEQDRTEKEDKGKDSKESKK

| SMILES | IC50 (hNav1.7) | IC50 (hNav1.5) |
| --- | --- | --- |
| CSCC[C@@H]1NC(=O)[C@H](C)NC(=O)CNC(=O)[C@H](CC(C)C)NC(=O)[C@@H](NC(=O)[C@@H](N)CC(=O)O)CSSC[C@@H]2NC(=O)[C@@H]3CSSC[C@@H](C(=O)N[C@@H](CCCCN)C(=O)N[C@@H](Cc4ccc(O)cc4)C(=O)N[C@H](C(=O)N[C@@H](Cc4ccccc4)C(N)=O)C(C)C)NC(=O)[C@H](Cc4c[nH]c5ccccc45)NC(=O)[C@H](CCCCN)NC(=O)[C@H](Cc4c[nH]cn4)NC(=O)[C@H]([C@@H](C)O)NC(=O)[C@H](CCCNC(=N)N)NC(=O)[C@H](CO)NC(=O)[C@H](CSSC[C@H](NC(=O)[C@H](CCCCN)NC(=O)[C@H](CCCNC(=N)N)NC1=O)C(=O)N[C@@H](CC(=O)O)C(=O)N1CCC[C@H]1C(=O)N[C@@H](CCC(=O)O)C(=O)N[C@@H](CC(N)=O)C(=O)N[C@@H](CC(=O)O)C(=O)N[C@@H](CCCCN)C(=O)N3)NC(=O)[C@H](C(C)C)NC(=O)[C@H](CC(C)C)NC(=O)[C@H](CC(N)=O)NC(=O)[C@@H]1CCCN1C(=O)[C@H](CCCNC(=N)N)NC2=O [[Ala5;Asp10;Glu12]GpTx-1(1-34)] (H-DCLGAMRKCDPENDKCCRPNLVCSRTHKWCKYVF-NH2; disulfide 2-17, 9-23, 16-30) | 554 nM | > 10000 nM |
| CSCC[C@@H]1NC(=O)[C@H](C)NC(=O)CNC(=O)[C@H](CC(C)C)NC(=O)[C@@H](NC(=O)[C@@H](N)CC(=O)O)CSSC[C@@H]2NC(=O)[C@@H]3CSSC[C@@H](C(=O)N[C@@H](CCCCN)C(=O)N[C@@H](Cc4ccc(O)cc4)C(=O)N[C@H](C(=O)N[C@@H](Cc4ccccc4)C(N)=O)C(C)C)NC(=O)[C@H](Cc4c[nH]c5ccccc45)NC(=O)[C@H](CCCCN)NC(=O)[C@H](Cc4c[nH]cn4)NC(=O)[C@H]([C@@H](C)O)NC(=O)[C@H](CCCNC(=N)N)NC(=O)[C@H](CO)NC(=O)[C@H](CSSC[C@H](NC(=O)[C@H](CCCCN)NC(=O)[C@H](CCCNC(=N)N)NC1=O)C(=O)N[C@@H](CC(=O)O)C(=O)N1CCC[C@H]1C(=O)N[C@@H](CC(=O)O)C(=O)N[C@@H](CC(N)=O)C(=O)N[C@@H](CC(=O)O)C(=O)N[C@@H](CCCCN)C(=O)N3)NC(=O)[C@H](C(C)C)NC(=O)[C@H](CC(C)C)NC(=O)[C@H](CC(N)=O)NC(=O)[C@@H]1CCCN1C(=O)[C@H](CCCNC(=N)N)NC2=O [[Ala5;Asp10]GpTx-1(1-34)] (H-DCLGAMRKCDPDNDKCCRPNLVCSRTHKWCKYVF-NH2; disulfide 2-17, 9-23, 16-30) | 50 nM | > 10000 nM |
| CC[C@H](C)[C@@H]1NC(=O)[C@@H]2CSSC[C@@H]3NC(=O)[C@H](C(C)C)NC(=O)[C@H](CC(C)C)NC(=O)[C@H](CC(N)=O)NC(=O)[C@@H]4CCCN4C(=O)[C@H](CCCNC(=N)N)NC(=O)[C@H](CSSC[C@H](NC(=O)[C@@H](N)CC(=O)O)C(=O)N[C@@H](CC(C)C)C(=O)NCC(=O)N[C@@H](C)C(=O)N[C@@H](CCSC)C(=O)N[C@@H](CCCNC(=N)N)C(=O)N[C@@H](CCCCN)C(=O)N2)NC(=O)[C@H](CSSC[C@@H](C(=O)N[C@@H](CCCCN)C(=O)N[C@@H](Cc2ccc(O)cc2)C(=O)N[C@H](C(=O)N[C@@H](Cc2ccccc2)C(N)=O)C(C)C)NC(=O)[C@H](Cc2c[nH]c4ccccc24)NC(=O)[C@H](CCCNC(N)=O)NC(=O)[C@H](Cc2c[nH]cn2)NC(=O)[C@H]([C@@H](C)O)NC(=O)[C@H](CCCNC(=N)N)NC(=O)[C@H](CO)NC3=O)NC(=O)[C@H](CCCCN)NC(=O)[C@H](CC(=O)O)NC(=O)[C@H](CC(N)=O)NC(=O)[C@H](CC(=O)O)NC(=O)[C@@H]2CCCN2C1=O [[Ala5;Cit28]GpTx-1(1-34)] (H-DCLGAMRKCIPDNDKCCRPNLVCSRTH[Cit]WCKYVF-NH2; disulfide 2-17, 9-23, 16-30) | 30 nM | > 10000 nM |
| CC[C@H](C)[C@@H]1NC(=O)[C@@H]2CSSC[C@@H]3NC(=O)[C@H](C(C)C)NC(=O)[C@H](CC(C)C)NC(=O)[C@H](CC(N)=O)NC(=O)[C@@H]4CCCN4C(=O)[C@H](CCCNC(=N)N)NC(=O)[C@H](CSSC[C@H](NC(=O)[C@@H](N)CC(=O)O)C(=O)N[C@@H](CC(C)C)C(=O)NCC(=O)N[C@@H](C)C(=O)N[C@@H](CCSC)C(=O)N[C@@H](CCCNC(=N)N)C(=O)N[C@@H](CCCCN)C(=O)N2)NC(=O)[C@H](CSSC[C@@H](C(=O)N[C@@H](CCCCN)C(=O)N[C@@H](Cc2ccc(O)cc2)C(=O)N[C@H](C(=O)N[C@@H](Cc2ccccc2)C(N)=O)C(C)C)NC(=O)[C@H](Cc2c[nH]c4ccccc24)NC(=O)[C@H](CCN)NC(=O)[C@H](Cc2c[nH]cn2)NC(=O)[C@H]([C@@H](C)O)NC(=O)[C@H](CCCNC(=N)N)NC(=O)[C@H](CO)NC3=O)NC(=O)[C@H](CCCCN)NC(=O)[C@H](CC(=O)O)NC(=O)[C@H](CC(N)=O)NC(=O)[C@H](CC(=O)O)NC(=O)[C@@H]2CCCN2C1=O [[Ala5;Dab28]GpTx-1(1-34)] (H-DCLGAMRKCIPDNDKCCRPNLVCSRTH[Dab]WCKYVF-NH2; disulfide 2-17, 9-23, 16-30) | 13 nM | > 10000 nM |
| CC[C@H](C)[C@@H]1NC(=O)[C@@H]2CSSC[C@@H]3NC(=O)[C@H](C(C)C)NC(=O)[C@H](CC(C)C)NC(=O)[C@H](CC(N)=O)NC(=O)[C@@H]4CCCN4C(=O)[C@H](CCCNC(=N)N)NC(=O)[C@H](CSSC[C@H](NC(=O)[C@@H](N)CC(=O)O)C(=O)N[C@@H](CC(C)C)C(=O)NCC(=O)N[C@@H](C)C(=O)N[C@@H](CCSC)C(=O)N[C@@H](CCCNC(=N)N)C(=O)N[C@@H](CCCCN)C(=O)N2)NC(=O)[C@H](CSSC[C@@H](C(=O)N[C@@H](CCCCN)C(=O)N[C@@H](Cc2ccc(O)cc2)C(=O)N[C@H](C(=O)N[C@@H](Cc2ccccc2)C(N)=O)C(C)C)NC(=O)[C@H](Cc2c[nH]c4ccccc24)NC(=O)[C@H](CCC(N)=O)NC(=O)[C@H](Cc2c[nH]cn2)NC(=O)[C@H]([C@@H](C)O)NC(=O)[C@H](CCCNC(=N)N)NC(=O)[C@H](CO)NC3=O)NC(=O)[C@H](CCCCN)NC(=O)[C@H](CC(=O)O)NC(=O)[C@H](CC(N)=O)NC(=O)[C@H](CC(=O)O)NC(=O)[C@@H]2CCCN2C1=O [[Ala5;Gln28]GpTx-1(1-34)] (H-DCLGAMRKCIPDNDKCCRPNLVCSRTHQWCKYVF-NH2; disulfide 2-17, 9-23, 16-30) | 37 nM | > 10000 nM |
| CC[C@H](C)[C@@H]1NC(=O)[C@@H]2CSSC[C@@H]3NC(=O)[C@H](C(C)C)NC(=O)[C@H](CC(C)C)NC(=O)[C@H](CC(N)=O)NC(=O)[C@@H]4CCCN4C(=O)[C@H](CCCNC(=N)N)NC(=O)[C@H](CSSC[C@H](NC(=O)[C@@H](N)CC(=O)O)C(=O)N[C@@H](CC(C)C)C(=O)NCC(=O)N[C@@H](C)C(=O)N[C@@H](CCSC)C(=O)N[C@@H](CCCNC(=N)N)C(=O)N[C@@H](CCCCN)C(=O)N2)NC(=O)[C@H](CSSC[C@@H](C(=O)N[C@@H](CCCCN)C(=O)N[C@@H](Cc2ccc(O)cc2)C(=O)N[C@H](C(=O)N[C@@H](Cc2ccccc2)C(N)=O)C(C)C)NC(=O)[C@H](Cc2c[nH]c4ccccc24)NC(=O)[C@H](CCC(=O)O)NC(=O)[C@H](Cc2c[nH]cn2)NC(=O)[C@H]([C@@H](C)O)NC(=O)[C@H](CCCNC(=N)N)NC(=O)[C@H](CO)NC3=O)NC(=O)[C@H](CCCCN)NC(=O)[C@H](CC(=O)O)NC(=O)[C@H](CC(N)=O)NC(=O)[C@H](CC(=O)O)NC(=O)[C@@H]2CCCN2C1=O [[Ala5;Glu28]GpTx-1(1-34)] | 614 nM | > 10000 nM |
| CC[C@H](C)[C@@H]1NC(=O)[C@@H]2CSSC[C@@H]3NC(=O)[C@H](C(C)C)NC(=O)[C@H](CC(C)C)NC(=O)[C@H](CC(N)=O)NC(=O)[C@@H]4CCCN4C(=O)[C@H](CCCNC(=N)N)NC(=O)[C@H](CSSC[C@H](NC(=O)[C@@H](N)CC(=O)O)C(=O)N[C@@H](CC(C)C)C(=O)NCC(=O)N[C@@H](C)C(=O)N[C@@H](CCSC)C(=O)N[C@@H](CCCNC(=N)N)C(=O)N[C@@H](CCCCN)C(=O)N2)NC(=O)[C@H](CSSC[C@@H](C(=O)N[C@@H](CCCCN)C(=O)N[C@@H](Cc2ccc(O)cc2)C(=O)N[C@H](C(=O)N[C@@H](Cc2ccccc2)C(N)=O)C(C)C)NC(=O)[C@H](Cc2c[nH]c4ccccc24)NC(=O)[C@H](Cc2ccc(NC(=N)N)cc2)NC(=O)[C@H](Cc2c[nH]cn2)NC(=O)[C@H]([C@@H](C)O)NC(=O)[C@H](CCCNC(=N)N)NC(=O)[C@H](CO)NC3=O)NC(=O)[C@H](CCCCN)NC(=O)[C@H](CC(=O)O)NC(=O)[C@H](CC(N)=O)NC(=O)[C@H](CC(=O)O)NC(=O)[C@@H]2CCCN2C1=O [[Ala5;Guf28]GpTx-1(1-34)] (H-DCLGAMRKCIPDNDKCCRPNLVCSRTH[Phe(4-guanidino)]WCKYVF-NH2; disulfide 2-17, 9-23, 16-30) | 5 nM | > 10000 nM |
| CC[C@H](C)[C@@H]1NC(=O)[C@@H]2CSSC[C@@H]3NC(=O)[C@H](C(C)C)NC(=O)[C@H](CC(C)C)NC(=O)[C@H](CC(N)=O)NC(=O)[C@@H]4CCCN4C(=O)[C@H](CCCNC(=N)N)NC(=O)[C@H](CSSC[C@H](NC(=O)[C@@H](N)CC(=O)O)C(=O)N[C@@H](CC(C)C)C(=O)NCC(=O)N[C@@H](C)C(=O)N[C@@H](CCSC)C(=O)N[C@@H](CCCNC(=N)N)C(=O)N[C@@H](CCCCN)C(=O)N2)NC(=O)[C@H](CSSC[C@@H](C(=O)N[C@@H](CCCCN)C(=O)N[C@@H](Cc2ccc(O)cc2)C(=O)N[C@H](C(=O)N[C@@H](Cc2ccccc2)C(N)=O)C(C)C)NC(=O)[C@H](Cc2c[nH]c4ccccc24)NC(=O)[C@H](CCCCNC(N)=O)NC(=O)[C@H](Cc2c[nH]cn2)NC(=O)[C@H]([C@@H](C)O)NC(=O)[C@H](CCCNC(=N)N)NC(=O)[C@H](CO)NC3=O)NC(=O)[C@H](CCCCN)NC(=O)[C@H](CC(=O)O)NC(=O)[C@H](CC(N)=O)NC(=O)[C@H](CC(=O)O)NC(=O)[C@@H]2CCCN2C1=O [[Ala5;HCit28]GpTx-1(1-34)] (H-DCLGAMRKCIPDNDKCCRPNLVCSRTH[hCit]WCKYVF-NH2; disulfide 2-17, 9-23, 16-30) | 25 nM | > 10000 nM |
